From PMC12631937, “Autologous Organoid‐T Cell Co‐Culture Platform for Modeling of Immune‐Mediated Drug‐Induced Liver Injury” (Advanced Science, 2025)

Columns and labels:
[1] = reported clinical Cmax; cited from earlier work
[2] = system: HLO microarrays (iPSC-derived human liver organoids); assay: Albumin secretion of HLO microarrays in culture supernatant (ELISA); assay type: cell-based; details: 168 h, seven-day repeated-dose treatment, Figure 2E, read-out: Albumin release (% of control) IC50
Description: Hepatic functionality was further evaluated by measuring albumin secretion in the culture supernatant via ELISA (Figure 2A). […] Aliquots were frozen to ensure consistency across experiments. On the day of treatment, aliquots were thawed and diluted in liver maturation medium to achieve final working concentrations. Flucloxacillin (Sigma) was freshly prepared in liver maturation medium immediately prior to each dosing.

[3] = system: HLO microarrays (iPSC-derived human liver organoids); assay: cells
Experimental: HLO microarrays were exposed to seven‐day repeated‐dose treatment of Chlorpromazine and Flucloxacillin across five half‐log‐spaced concentrations, with vehicle‐treated wells serving as controls. Following treatment, cell viability was assessed by quantifying total cellular ATP content using the CellTiter‐Glo assay, while cytotoxicity was determined by counting DRAQ7‐positive nuclei (dead cells) in organoids. Hepatic functionality was further evaluated by measuring albumin secretion in the culture supernatant via ELISA (Figure 2A).
Chlorpromazine (Sigma) and Streptomycin (MCE) were dissolved in DMSO, and 5–7 serial dilutions of 200 × stock solutions were prepared alongside corresponding vehicle controls (0.5% DMSO). Aliquots were frozen to ensure consistency across experiments. On the day of treatment, aliquots were thawed and diluted in liver maturation medium to achieve final working concentrations. Flucloxacillin (Sigma) was freshly prepared in liver maturation medium immediately prior to each dosing. HLO microarrays were treated over a 7‐day period, with a single re‐dosing and media refreshment on day 3. The highest concentrations tested for all compounds were 1000 µM.
Cell viability was assessed on day 7 using the CellTiter‐Glo 3D Cell Viability Assay (Promega, Cat. G9682). Luminescence was recorded using a Spectra Max iD3 microplate reader (Molecular Devices) following the manufacturer's recommended settings. Viability data from compound‐treated HLOs were normalized to the corresponding vehicle controls on the same plate.
Dose‐response curves and IC50 values were determined by nonlinear regression of log‐transformed compound concentrations (6‐8 point serial dilutions including vehicle) against normalized viability data. Curve fitting was performed using a variable Hill slope and constraining the top and bottom of the curve to 100 and 0, respectively (GraphPad Prism, GraphPad Software, La Jolla, CA, USA). To contextualize in vitro toxicity data with human exposure levels, Margin of Safety (MOS) values were calculated as the ratio of the in vitro IC50 to the compound's reported clinical maximum plasma concentration (MOS = IC50 / Cmax).

[4] = system: HLO microarrays (iPSC-derived human liver organoids); assay: HLO microarray cytotoxicity, DRAQ7-positive nuclei (dead cells); assay type: cell-based; details: 168 h, seven-day repeated-dose treatment, Figure 2C, read-out: Cell death (% Draq7+ cells) IC50
Experimental: HLO microarrays were exposed to seven‐day repeated‐dose treatment of Chlorpromazine and Flucloxacillin across five half‐log‐spaced concentrations, with vehicle‐treated wells serving as controls. Following treatment, cell viability was assessed by quantifying total cellular ATP content using the CellTiter‐Glo assay, while cytotoxicity was determined by counting DRAQ7‐positive nuclei (dead cells) in organoids. Hepatic functionality was further evaluated by measuring albumin secretion in the culture supernatant via ELISA (Figure 2A). Chlorpromazine (Sigma) and Streptomycin (MCE) were dissolved in DMSO, and 5–7 serial dilutions of 200 × stock solutions were prepared alongside corresponding vehicle controls (0.5% DMSO). Aliquots were frozen to ensure consistency across experiments. On the day of treatment, aliquots were thawed and diluted in liver maturation medium to achieve final working concentrations. […] Dose‐response curves and IC50 values were determined by nonlinear regression of log‐transformed compound concentrations (6‐8 point serial dilutions including vehicle) against normalized viability data. […] To contextualize in vitro toxicity data with human exposure levels, Margin of Safety (MOS) values were calculated as the ratio of the in vitro IC50 to the compound's reported clinical maximum plasma concentration (MOS = IC50 / Cmax).

[5] = system: HLOs co-cultured with autologous Flucloxacillin-primed CD8+ T cells; assay: Autologous HLO - CD8+ T cell co-culture, immune-mediated hepatocyte injury; assay type: cell-based, human
Experimental: To model immune‐mediated liver injury, Flucloxacillin‐primed CD8⁺ T cells from three HLA‐B*57:01 carrier and three HLA‐B*57:01 non‐carrier donors were co‐cultured with autologous HLOs pre‐treated with Flucloxacillin (Figure 5A). Co‐cultures with unprimed CD8⁺ T cells served as controls to exclude non‐specific T cell reactivity. HLOs were generated from iPSC lines derived from donor PBMCs and exposed to 100 µM Flucloxacillin for 72 h before initiating co‐culture. On day 23 of maturation, HLOs were co‐cultured with unprimed or Flux‐primed CD8⁺ T cells to assess immune‐mediated hepatocyte injury. Liver damage was quantified using immunofluorescence‐based detection of DRAQ7⁺ dead cells and measurement of cytokeratin‐18 (CK‐18) release, a highly specific biomarker of early‐stage DILI. CK‐18, an intermediate filament protein expressed in hepatocytes and cholangiocytes but absent in immune cells, provided greater specificity for hepatocyte death than traditional markers such as LDH or ATP.
Culture supernatants were analyzed to quantify albumin and CK18 levels using sandwich ELISA kits (Albumin, Abcam, and M65 EpiDeath CK18Diapharma) according to manufacturer's protocols. TNFα and Granzyme B secretion were measured using the Luminex Discovery Assay kit (R&D Systems/Biotechne) according to the manufacturer's protocol.
Following initial 12 day priming as described above, CD8^+ T cells were stained with CFSE (5 µM, Fisher Scientific, Catalog No. 11‐0699‐42) and resuspended in an optimized co‐culture media. This media consisted of a 1:1 mixture of complete RPMI (RPMI + 1% penicillin/streptomycin and 150 IU mL^−1 IL‐2) and modified liver maturation media (excluding HGF, dexamethasone and hydrocortisone) supplemented with 10 IU mL^−1 IL‐7 and 10 IU/ml IL‐15. Labeled CD8⁺ T cells were added to mature (day 23) HLO microarray cultures at effector‐to‐target (E:T) ratios of 1:1 and 1:5. These ratios were chosen to reflect the localized enrichment of cytotoxic lymphocytes observed during immune‐mediated liver injury, including periportal CD8⁺ T cell infiltration in flucloxacillin‐induced DILI (PMID: 24 731 753).^[ [14] ^] Prior to co‐culture, HLO were pretreated with 100 µM Flucloxacillin for 72 h. The co‐culture was maintained for 72 h with media exchanges performed every 24 h. When indicated, T cell activation was induced using anti‐CD3 (1 µg ml^−1, BioLegend) and anti‐CD28 (1 µg ml^−1, BioLegend) antibodies.

[6] = system: CD8+ T cells; assay: Monocyte-derived dendritic cell (mDC) priming assay of naïve CD8+ T cells, flow cytometry; assay type: cell-based, human
Description: Peripheral blood samples were collected from four HLA‐B*57:01 carriers and four HLA‐B*57:01 non‐carrier donors (Figure 4B). To generate antigen‐specific CD8⁺ T cells, we employed a monocyte‐derived dendritic cell (mDC) priming assay (Figure 4A). Naïve CD8⁺ T cells and monocytes were isolated from peripheral blood mononuclear cells (PBMCs) of each donor. mDCs were differentiated using IL‐4 and GM‐CSF, followed by maturation and activation with LPS and IFN‐γ. Mature mDCs were then loaded with Flucloxacillin or media alone and used to prime naïve CD8⁺ T cells. After priming, CD8⁺ T cells (i.e., Flucloxacillin‐primed CD8^+ T cells) were expanded in the presence of a low dose of IL‐15 for 10 days, followed by CFSE labeling and re‐stimulation with freshly loaded mDCs under the same conditions. Flow cytometry was used to assess CD8⁺ T cell maturation, proliferation, and post‐priming activation. […] T cell antigen‐specific activation efficacy was evaluated using multi‐color flow cytometry with Diva and FlowJo (BD software). T cell proliferation and activation were assessed using CFSE (1 µM, ThermoFisher) for proliferation, Human TruStain FcX for Fc receptor blocking, and a panel of antibodies including CD3 (clone UCHT1), CD8 (clone 3B5), CD4 (clone RPA‐T4), CD45RO (clone UCHL1), CD107a (clone H4A3), HLA‐DR (clone TU36), CD137 (clone 4B4), and CD69 (clone FN50). […]

[7] = Homo sapiens, 168 h, read-out: Cell Viability (% of control) IC50, ATP-based, seven-day repeated-dose treatment, Figure 2D
[8] = Homo sapiens, read-out: average IC50, average across three independent iPSC-derived HLO lines (donors), Figure S2

Q: Which results are given for `CN(C)CCCN1c2ccccc2Sc2ccc(Cl)cc21` [Chlorpromazine]?
A: Cmax [1]: ~0.94 µM; IC50 [2]: 6.36 µM; IC50 [3, 7]: 14.5 µM; IC50 [3, 8]: 11.1 µM; margin of safety (MOS = IC50 / Cmax) ([3]; human, 7 days): ≈ 15.3; IC50 ([3]; read-out: Cell Viability (% of control) IC50, ATP-based, seven-day repeated-dose treatment, Figure 2D): 14.4 µM; IC50 [4]: 19.7 µM

Q: Which Cmax [1] does the source give for `[H]/N=C(/N)N[C@H]1[C@H](O)[C@@H](O)[C@H](O[C@@H]2O[C@@H](C)[C@](O)(C=O)[C@H]2O[C@@H]2O[C@@H](CO)[C@H](O)[C@@H](O)[C@@H]2NC)[C@@H](N/C(N)=N\[H])[C@@H]1O` [Streptomycin] here?
A: ~72.2 µM

Q: And the “cytotoxicity at clinically relevant exposures” value [3]?
A: no cytotoxicity

Q: What about the IC50 [3, 8] of the same compound?
A: 341 µM

Q: With `Cc1onc(-c2c(F)cccc2Cl)c1C(=O)N[C@@H]1C(=O)N2[C@@H]1SC(C)(C)[C@@H]2C(=O)O` [Flucloxacillin] as the compound, how does the Cmax [1] read?
A: ~31 µM

Q: And the IC50 [2]?
A: > 1000 µM

Q: What about the “cytotoxicity at clinically relevant exposures” value [3] of the same compound?
A: no cytotoxicity

Q: And the IC50 [3, 7]?
A: > 1000 µM

Q: And the “secretion of TNF-α and Granzyme B” value ([5]; primed CD8+ T cells from HLA-B*57:01 carrier donors 534 and 622)?
A: increased secretion

Q: What about the CK-18 release ([5]; primed CD8+ T cells from HLA-B*57:01 carrier donors 534 and 622, HLOs pre-treated with 100 µM for 72 h) of the same compound?
A: significantly elevated

Q: What about the “increase in DRAQ7+ cell death compared to T cell-free controls” value ([5]; primed CD8+ T cells from HLA-B*57:01 carrier donors 534 and 622, HLOs pre-treated with 100 µM for 72 h, 72 h co-culture) of the same compound?
A: 4 fold

Q: And the “hepatocyte death or CK-18 release” value ([5]; primed T cells from weak-responder HLA-B*57:01 carriers and all non-carrier donors)?
A: failed to induce hepatocyte death

Q: What about the “CD8+ T cell response to priming” value ([6]; HLA-B*57:01 non-carrier donors) of the same compound?
A: did not exhibit a comparable response

Q: And the “increase in T cell proliferation (CFSElow cells) and activation marker expression relative to media-alone priming” value ([6]; two of four HLA-B*57:01-positive donors (robust responders), DCs pulsed with 1000 µM)?
A: over 2 fold

Q: And the IC50 [4]?
A: > 1000 µM
